Measured values taken from patent US20240166680A1, “NUCLEOSIDE ANALOG AND USE THEREOF” (SHANGHAI INSTITUTE OF MATERIA MEDICA, CHINESE ACADEMY OF …, priority 2021, published 2024).
Read-outs that look alike come from different tables or passages of the source.

What was measured:
[1] = Cytotoxicity in MDCK cells (no viral infection); assay type: cell-based; details: dog, without viral infection, read-out: H3N2 (MDCK) CC50
Procedure: (§1) Determination of the inhibitory activity of compounds on the replication of respiratory syncytial virus (RSV), human coronavirus OC43, influenza A virus, and Zika virus by Cytopathogenic effect (CPE): the experimental cells were inoculated at a certain cell density to 96 well cell culture plates, and cultured overnight in a 5% CO2, 37° C. incubator. The compounds and viruses were added the next day. Depending on the tested virus, the cells were cultured in an incubator for 3-7 days under 5% CO2, 33° C. or 37° C., until 80-95% of the cells in the virus-infected control wells without compound had pathological changes. Cell viability in each well was then detected with CellTiter-Glo or CCK-8. […] The cytotoxicity test method is the same as the corresponding antiviral test method, but without viral infection.
(§2) The antiviral activity and cytotoxicity of the compound are represented by the inhibition rate (%) of the compound on the virus-induced cellular viral effect and the cell viability (%), respectively. Calculation equations are as follows:
(§3) Cell viability (%)=(reading value of test well−average value of medium control)/(average value of cell control−average value of medium control)×100;
(§4) EC50 and CC50 values were calculated by Prism software, and the inhibition curve fitting method was “log (inhibitor) vs. response—Variable slope”.

in vitro = details: human
[2] = test system: respiratory syncytial virus (RSV); assay: Inhibition of respiratory syncytial virus replication by CPE in HEp-2; assay type: cell-based; details: human respiratory syncytial virus, HEp-2, read-out: RSV (HEp-2) EC50
influenza A virus (H3N2) = assay: Inhibition of influenza virus H3N2 replication by CPE in MDCK; assay type: cell-based; details: MDCK cells
[3] = Cytotoxicity in Vero cells (SARS-CoV-2 test); assay type: cell-based; details: African green monkey
[4] = Cytotoxicity in Huh7 cells (no viral infection); assay type: cell-based; details: human, without viral infection, read-out: HCoV OC43 (Huh7) CC50
Procedure: as §1, §2, §3, §4

[5] = test system: 2019 novel coronavirus (SARS-CoV-2); assay: Inhibition of SARS-CoV-2 replication in Vero cells (qRT-PCR); assay type: cell-based; details: Severe acute respiratory syndrome coronavirus 2, 48 hours, virus copy number in supernatant by qRT-PCR
dengue virus (DENV) = assay: Dengue virus plaque reduction assay in Vero cells; assay type: cell-based; details: read-out: DENV (Vero) Inhibition rate at 5 μM
Procedure: Determination of the inhibitory activity of compounds against dengue virus by plaque reduction assay: Vero cells were inoculated into 6-well cell culture plates at a density of 600,000 cells per well, and cultured overnight in a 5% CO2, 37° C. incubator. The compounds and virus (40-50 PFU/well) were added the next day. The cells were cultured in an incubator at 5% CO2 and 37° C. for 2 hours, then the supernatant was aspirated, and the low-melting point agarose culture medium containing the corresponding concentration of the compound was added. The cells were cultured in an incubator at 5% CO2, 33° C. or 37° C. for 6-7 days, until obvious virus plaques could be observed in the virus-infected control wells without compound under the microscope. Cells were fixed with 4% paraformaldehyde and stained with crystal violet. The number of plaques in each well was calculated. Cytotoxicity experiments were performed in parallel with antiviral experiments. Vero cells were inoculated into 96-well cell culture plates at a density of 20,000 cells per well, and cultured overnight in a 5% CO2, 37° C. incubator. The compounds were added the next day (1-5 concentration points, single point). The cells were cultured in an incubator at 5% CO2, 33° C. or 37° C. for 6-7 days. Cell viability in each well was then detected with CCK-8.

Zika virus = assay: Inhibition of Zika virus replication by CPE in Huh7; assay type: cell-based; details: Huh-7, read-out: Zika (Huh7) Inhibition rate
[6] = in monkeys; cited from earlier work
[7] = test system: porcine epidemic diarrhea virus (PEDV); assay: Inhibition of PEDV replication in Vero cells by fluorescent quantitative PCR; details: 36 h, read-out: PEDV (Vero) EC50
[8] = assay type: in vivo, cynomolgus monkey; details: cynomolgus monkeys, single intragastric 0.35 mmol/kg
[9] = assay type: in vivo, rat; details: SD rats
Procedure: 6 Male SD rats for each compound were divided into 2 groups (gastric administration group and intravenous injection group), 3 rats in each group. The rates were fasted for 12 h before the experiment (the intravenous experiment group was not fasted), had free access to water, and ate uniformly 4 hours after the administration. The dosages of C22 and C23 were 16 mg/kg and 20 mg/kg for intragastric administration, respectively, and the administration vehicle was 5% DMSO+5% solutol+90% saline. The intravenous injection dosages were 4 mg/kg and 5 mg/kg respectively, and the administration vehicle was DMSO/EtOH/PEG300/0.9% NaCl (5/5/40/50, v/v/v/v). 0.2 mL of blood was collected from the jugular vein 5 min, 0.25 h, 0.5 h, 1.0 h, 2.0 h, 4.0 h, 6.0 h, 8.0 h and 24 h after the administration, placed in an EDTA-K2 test tube abd centrifuged at 11,000 rpm for 5 minutes, and the plasma was separated, and stored in a −70° C. refrigerator for testing. The operation was under an ice water bath. The concentration of nucleoside metabolites in plasma was determined by LC-MS-MS, and the pharmacokinetic parameters were calculated.

[10] = nucleoside metabolite in plasma, iv 4 mg/kg
[11] = nucleoside metabolite in plasma, po 16 mg/kg

With `O=C1O[C@H]2[C@H](n3ccc(=O)[nH]c3=O)O[C@](F)(COC(=O)C3CC3)[C@H]2O1` [Compound B4] the CC50 [1] was > 10000 nM, the CC50 (in vitro) was > 10000 nM and the EC50 [2] was 1020 nM. The EC50 (influenza A virus (H3N2)) was 1380 nM.

In the case of `[2H]c1cc([C@]2(C#N)O[C@H](CO)[C@@H](O)[C@H]2O)n2ncnc(N)c12` [Compound C22-0], the CC50 [3] is reported as > 10000 nM, the CC50 [4] is reported as > 10000 nM and the EC50 [5] is reported as 460 nM. The inhibition at 5 µM (dengue virus (DENV)) was 100%, the CC50 (in vitro) was > 10000 nM and the EC50 [2] was 560 nM.

For `CC(=O)OC[C@@]1(F)O[C@@H](n2ccc(=O)[nH]c2=O)[C@@H]2OC(=O)O[C@@H]21` [Compound B38], the CC50 [1] was > 10000 nM, the CC50 (in vitro) was > 10000 nM and the EC50 [2] was 990 nM. It also gave an EC50 (influenza A virus (H3N2)) of 540 nM.

In the case of `O=c1ccn([C@@H]2O[C@](F)(CO)[C@@H](O)[C@H]2O)c(=O)[nH]1` [Compound B1-N, reference compound], the CC50 [1] is reported as > 10000 nM, the EC50 (influenza A virus (H3N2)) is reported as < 1000 nM and the inhibition at 5 µM (Zika virus) is reported as 30%.

For `O=c1nc(NO)ccn1[C@@H]1O[C@H](CO)[C@@H](O)[C@H]1O` [NHC, β-d-N4-hydroxycytidine], the CC50 [3] is given as > 10000 nM, the oral bioavailability [6] is given as “less than 10%” and the EC50 [7] is given as 1170 nM. The EC50 [5] was 300 nM, the CC50 [1] was > 10000 nM and the inhibition at 5 µM (dengue virus (DENV)) was 40%. The CC50 (in vitro) was > 10000 nM, the EC50 [2] was 4600 nM and the EC50 (influenza A virus (H3N2)) was 770 nM. It also gave an inhibition at 5 µM (Zika virus) of 66%.

For `O=C1O[C@H]2[C@H](n3ccc(=O)[nH]c3=O)O[C@](F)(CO)[C@H]2O1` [Compound B1], the CC50 [1] was > 10000 nM, the CC50 (in vitro) was > 10000 nM and the EC50 [2] was 990 nM. For the same compound, the EC50 (influenza A virus (H3N2)) was 370 nM.

For `CC(C)[C@H](N)C(=O)OC[C@H]1O[C@@H](n2cc/c(=N/O)[nH]c2=O)[C@@H]2OC(=O)O[C@@H]21.Cl` [Compound A6], the AUC(0-t) ([8]; analyte A1) was 818 ng·h/mL, the Cmax ([8]; analyte A1) was 326 ng/mL and the Tmax ([8]; analyte A1) was 1.50 h. It also gave a t1/2 ([8]; analyte A1) of 0.91 h, an AUC(0-t) ([8]; nucleoside metabolite NHC) of 2417 ng·h/mL and a Cmax ([8]; nucleoside metabolite NHC) of 1209 ng/mL. It also gave a T1/2 ([8]; nucleoside metabolite NHC) of 0.83 h and a Tmax ([8]; nucleoside metabolite NHC) of 1.50 h.

With `CCC(CC)COC(=O)[C@H](C)N[P@](=O)(OC[C@@]1(F)O[C@@H](n2ccc(=O)[nH]c2=O)[C@@H]2OC(=O)O[C@@H]21)Oc1ccccc1` [Compound B14] the CC50 (in vitro) was > 10000 nM and the EC50 [2] was 1080 nM.

In the case of `[2H]c1cc([C@]2(C#N)O[C@H](CO)[C@H]3OC(=O)O[C@H]32)n2ncnc(N)c12` [Compound C22], the “AUC(0-t)” value [9, 10] is reported as 2348 ng·h/mL, the “AUC(0-∞)” value [9, 10] is reported as 2398 ng·h/mL and the Cmax [9, 10] is reported as 2883 ng/mL. The T1/2 [9, 10] was 1.35 h, the “AUC(0-t)” value [9, 11] was 7068 ng·h/mL and the “AUC(0-∞)” value [9, 11] was 7157 ng·h/mL. For the same compound, the Cmax [9, 11] was 2217 ng/mL, the T1/2 [9, 11] was 1.08 h and the Tmax [9, 11] was 0.5 h. The “F % (bioavailability)” value ([9]; nucleoside metabolite, po 16 mg/kg vs iv 4 mg/kg) was 75.3%.
